“Also recorded” adds a separate entry of the source.
How the values were obtained:
CV-1 cells = details: CV-1, 20 nM AND 12 h, measurable only in the media
Protocol: LAPC-4 cells were plated at 1.2×10^5/well and CV-1 cells at 1×10^4/well in 6-well tissue culture plates (Corning). Media and cell pellets from two 6-well plates were combined to generate 1 media and 1 cell pellet sample for liquid chromatography-tandem mass spectrometry (LC-MS/MS) analysis. LAPC-4 cells were transfected using the Effectene Transfection Kit (Invitrogen, Grand Island, N.Y.). Forty-eight h after transfection, growth media was removed and LAPC-4 cells were washed once with Dulbecco's phosphate buffered saline (PBS, Corning). […]
After 12 h treatment, media (total 24 mL) were collected in 50 mL conical tubes (Corning). […] Cell pellets were stored at −80° C. until analyzed using LC-MS/MS.
(§1) Cell pellet and media samples were analyzed over 9 runs for 5 androgens T, DHT, dehydroepiandrosterone, ASD and AND using a validated LC-MS/MS method. […] Study samples were quantitated using aqueous-based spiked calibration standards and pre-spiked quality control samples prepared in 2× charcoal-stripped human postmenopausal female plasma (Bioreclamation, LLC, Westbury, N.Y.).
Androgen concentrations (pmoles/mg protein) in cell lysates measured using LC-MS/MS (ng/mL) were multiplied by the total volume of the lysate (1 mL), normalized by the total amount of protein of the cell pellet (mg), divided by the molecular weight of the androgen (ng/nmole), and converted to pmoles. […]

VCaP cells = experiment: Androgen levels (LC-MS/MS) in VCaP cells; assay type: cell-based, human; details: for DHT levels after substrate treatment: VCaP, 12 h in SFM with 20 nM DIOL, 20 nM AND or 1 nM T, one cell pellet per condition; for DHT levels / DHT synthesis: VCaP in SFM, 1 μM dutasteride 12 h, no substrate added
Protocol: FIG. 8: Intracellular T and DHT levels from VCaP cells; Related to FIG. 3. VCaP cells were treated for 12 h in SFM with or without 1 μM Dut, 1 nM T, 20 nM DIOL or 20 nM AND. VCaP cells were harvested, one cell pellet was analyzed for each condition and androgen levels were measured using LC-MS/MS as described in Methods.
(§2) Experiments were performed in triplicate.
(§3) Empty plasmid, or plasmids for over-expression of RDH16 wild-type or RDH16-Y176F, K180R, were expressed into VCaP, C4-2 or CWR-R1 cells and DHT levels were measured using LC-MS/MS. […] C4-2 cells produced measurable levels of DHT that were reduced by dutasteride treatment (p=0.001; FIG. 6C; Table 10). […] C4-2 cells that expressed RDH16-Y176, K180R produced DHT levels similar to C4-2 cells with empty plasmid.

LAPC-4 cells = experiment: Androgen levels (LC-MS/MS) in transfected LAPC-4 cells; assay type: cell-based, human; details: for 5α-dione production after substrate treatment: 20 nM DIOL or 20 nM AND 12 h; for DHT levels after substrate treatment: 20 nM DIOL or 1 nM T 12 h, vs SFM
Protocol: LAPC-4 cells were plated at 1.2×10^5/well and CV-1 cells at 1×10^4/well in 6-well tissue culture plates (Corning). Media and cell pellets from two 6-well plates were combined to generate 1 media and 1 cell pellet sample for liquid chromatography-tandem mass spectrometry (LC-MS/MS) analysis. LAPC-4 cells were transfected using the Effectene Transfection Kit (Invitrogen, Grand Island, N.Y.). Forty-eight h after transfection, growth media was removed and LAPC-4 cells were washed once with Dulbecco's phosphate buffered saline (PBS, Corning). LAPC-4 cells were treated with serum-free complete media (SFM, Corning) alone or with 1 nM T, 20 nM DIOL 20 nM 5α-androstan-3α-ol-17-one (androsterone; AND) (Steraloids, Newport, R.I.) or 1 μM dutasteride (Selleckchem, Houston, Tex.) for 12 h. CV-1 cells were transfected using X-tremeGene HP transfection reagent (Roche Diagnostics Corporation, Indianapolis, Ind.). After 48 h, growth media were aspirated, CV-1 cells were washed once with PBS and incubated in SFM alone or with 20 nM AND (Steraloids) for 12 h.
After 12 h treatment, media (total 24 mL) were collected in 50 mL conical tubes (Corning). Cells were released using trypsin and collected in 15 mL conical tubes (Corning). The cells were washed 3 times using PBS, re-suspended in 1 mL PBS and 5% of the cell suspension was removed for protein concentration measurement and western blot analysis. The remaining 95% of the cell suspension was centrifuged and the supernatant was removed and discarded. Cell pellets were stored at −80° C. until analyzed using LC-MS/MS.
as §1
Androgen concentrations (pmoles/mg protein) in cell lysates measured using LC-MS/MS (ng/mL) were multiplied by the total volume of the lysate (1 mL), normalized by the total amount of protein of the cell pellet (mg), divided by the molecular weight of the androgen (ng/nmole), and converted to pmoles. Media androgen concentrations (ng/mL) were multiplied by the total volume of media (24 mL), normalized against total protein of the cell culture (mg), divided by the molecular weight of the androgen (ng/nmole) and converted to pmoles. Cell pellet and media androgen concentrations were reported combined in Results and separately in Supplemental Results. Experiments were performed in triplicate.
Cell pellets were resuspended in HPLC-grade water and vortexed or sonicated to disrupt cell membranes to obtain a homogeneous suspension. Samples were extracted using 0.25 ml quality control, plasma blank or sample in 0.75-2.0 mL HPLC-grade water, 0.1 ml internal standard (IS) solution (75.0/225 pg/mL d3-T/d3-DHT) and 4 mL methyl-tert-butyl ether (MTBE, Omnisolve®, EMD Milipore, Billerica, Mass.) in glass screw-top tubes. Calibrators were prepared using 50 μl spiking solution prepared in 75% methanol and added to the extraction tube. Either the entire 1 mL cell pellet suspension was added to the extraction tube and the original container rinsed with 25% methanol in water or samples were volume and compositionally corrected. Tubes were capped with Teflon-lined caps, vortexed, rotated 15 min and centrifuged using a Sorvall model RT6000B centrifuge (Thermo Scientific) at 2,800 rpm and 4° C. for 15-30 min to separate liquid phases. The aqueous phase was frozen in a dry ice/acetone bath and MTBE layer was poured into a clean glass conical tube. MTBE was evaporated at 37° C. with nitrogen and the residue was reconstituted with 60% methanol. The suspension was centrifuged using Heraeus Multifuge X3R centrifuge (Thermo Scientific) at 2,800 rpm and 4° C. for 5 min to separate insoluble materials. An aliquot of the supernatant was injected. […]

C4-2 cells = experiment: DHT levels (LC-MS/MS) in transfected C4-2 cells; assay type: cell-based, human
Protocol: as §2, §3

[1] = CaP, background statement; cited from earlier work
CWR-R1 cells = experiment: DHT levels (LC-MS/MS) in transfected CWR-R1 cells; assay type: cell-based, human
Protocol: as §2, §3

LNCaP cells = experiment: Androgen levels (LC-MS/MS) in transfected LNCaP cells; assay type: cell-based, human; details: dutasteride 12 h, cell pellet
Protocol: FIG. 11: Intracellular LNCaP T levels after treatment with dutasteride or SFM. Related to FIG. 6. LNCaP cells were transfected with empty plasmid, wild-type or Y176F, K180R RDH16, treated with SFM or SFM with dutasteride for 12 h and cell pellet androgen levels were measured using LC-MS/MS. T levels for LNCaP and western blot analysis for DDK tag.
as §2

SRD5A = experiment: Tissue DHT levels (LC-MS/MS), Selenium and Finasteride Pre-Treatment Trial; assay type: in vivo, human; details: research subjects with CaP before radical prostatectomy, benign and malignant macro-dissected samples; data not shown

SMILES: C[C@]12CC[C@@H](O)C[C@@H]1CC[C@@H]1[C@@H]2CC[C@]2(C)C(=O)CC[C@@H]12 [AND, 5α-androstan-3α-ol-17-one]
- 5α-dione production after substrate treatment (CV-1 cells): only a small amount
- DHT levels after substrate treatment (VCaP cells): increased
- 5α-dione production after substrate treatment (LAPC-4 cells; LAPC-4 with empty plasmid): produced

SMILES: C[C@]12CC[C@@H](O)C[C@@H]1CC[C@@H]1[C@@H]2CC[C@]2(C)[C@@H](O)CC[C@@H]12 [DIOL, 5α-androstane-3α, 17β-diol]
- DHT levels after substrate treatment (VCaP cells): increased
- DHT levels after substrate treatment (LAPC-4 cells; LAPC-4 with empty plasmid): higher
- 5α-dione production after substrate treatment (LAPC-4 cells; LAPC-4 with empty plasmid): produced

SMILES: C[C@]12CC[C@H]3[C@@H](CCC4=CC(=O)CC[C@@]43C)[C@@H]1CC[C@@H]2O [T, testosterone]
- DHT levels after substrate treatment (VCaP cells): not
- DHT levels after substrate treatment (LAPC-4 cells; LAPC-4 with empty plasmid): higher

SMILES: C[C@]12C=CC(=O)N[C@@H]1CC[C@@H]1[C@@H]2CC[C@]2(C)[C@@H](C(=O)Nc3cc(C(F)(F)F)ccc3C(F)(F)F)CC[C@@H]12 [dutasteride]
- DHT levels (C4-2 cells; C4-2 expressing wild-type RDH16, dutasteride vs SFM): appeared to be reduced
- DHT levels (C4-2 cells; C4-2 with empty plasmid, dutasteride vs SFM, p=0.001 in text): reduced
- DHT levels (VCaP cells; VCaP expressing wild-type RDH16, dutasteride vs SFM): affected minimally
- DHT levels / DHT synthesis (VCaP cells): did not lower
- DHT levels / DHT synthesis (VCaP cells; listed as Dutasteride): did not impair DHT synthesis
- intratumoral DHT levels [1]: not depleted
- DHT levels (CWR-R1 cells; CWR-R1 expressing RDH16-Y176F, K180R, dutasteride vs SFM): appeared lower
- DHT levels (CWR-R1 cells; CWR-R1 with empty plasmid or wild-type RDH16, dutasteride vs SFM): did not lower
- DHT levels (LAPC-4 cells; LAPC-4 expressing mutant RDH16 or DHRS9 plus dutasteride, vs LAPC-4 treated with dutasteride alone): lowered further
- DHT levels (LAPC-4 cells; LAPC-4 expressing wild-type RDH16 or DHRS9, 1 μM dutasteride 12 h vs SFM): No effect
- DHT levels (LAPC-4 cells; LAPC-4 with empty plasmid, 1 μM dutasteride 12 h vs SFM, cell pellet, p=0.041): decreased; also recorded: lower
- T levels (LAPC-4 cells; all LAPC-4 cells except those expressing RDH5-Δcat, dutasteride 12 h, cell pellet): lowered
- T levels (LNCaP cells): not detected

SMILES: CC(C)(C)NC(=O)[C@H]1CC[C@H]2[C@@H]3CC[C@H]4NC(=O)C=C[C@]4(C)[C@H]3CC[C@]12C [finasteride]
- CaP tissue levels of DHT (SRD5A): decreased
